One series relates to PARP1. In words: Western blot analysis of PARP1 cleavage in HCT116 cells. The series is classed as cell-based, human. The note with it: HCT116 cells treated for 24 h; measure of caspase dependent cell death. How it is done:
FIG. 13: Western blot analysis of PARP1 cleavage. HCT116 cells were treated with compounds 83, 84, and 85 at the indicated concentrations for 24 hr. Western blots were probed with an antibody that recognizes a cleaved form of PARP (Cell Signaling Technology 5626) as a measure of caspase dependent cell death.
To determine whether the compounds herein induced apoptosis, the enzyme Poly (ADP ribose) polymerase 1 (PARP1) was analyzed by western blotting. Caspase-dependent proteolytic cleavage of PARP1 is one of the hall marks of apoptosis and antibodies that specifically recognize the cleavage products are available. […] HCT116 cells were treated with compounds 83, 84, and 85 for 24 h.
(§1) NCI-H522 cell pellets obtained were lysed using lysis buffer containing 50 mM Tris (pH 7.4), 150 mM NaCl, 0.5% NP-40, (supplemented with 1 μg/ml aprotinin, 2 μg/ml leupeptin, 1 μg/ml pepstatin A, 1 mM DTT, and […]) for 30 minutes on ice and centrifuged at 13×10^3 g for 25 minutes at 4° C. The protein levels of the obtained lysates were normalized using BCA Protein Assay Kit (Pierce) and separated by SDS-polyacrylamide gel electrophoresis (12.5% acrylamide). Transfer to polyvinylidene difluoride membranes (Millipore) was followed by obstruction of membranes with blocking buffer containing 5% (w/v) non-fat dry milk dissolved in PBST [1×PBS containing 0.05% (v/v) Tween 20] for 1 hour at room temperature. Membranes were then incubated with corresponding primary antibodies overnight at 4° C. The membranes were then washed (3×15 min each) with PBST and incubated with secondary antibodies conjugated to horse-radish peroxidase, obtained from Biorad, and used at a dilution of 1:10,000. Bound antibodies were detected using enhanced chemiluminescence (Biorad).
(In general: A western blot detects proteins with antibodies after separation by electrophoresis.)

Series [1] concerns acetyl-H3 and pan-acetyl-lysine. In words: Hyperacetylation assay by western blot. It is filed as cell-based, human. The following applies: […], 5, and 10 μM, dose dependent. How it is done: The hallmark of HDAC inhibition is the hyperacetylation of several proteins which are substrates for HDACs. Thus, histone H3 hyperacetylation assay of some active compounds was carried out by western blot using antibodies for Histone H3 and pan-acetyl lysine.
as §1

Series [2] concerns sixty cell lines. In words: NCI 60 cell one-dose assay. It is filed as cell-based. The following applies: result in words.
In series [3] the test system is sixty cell lines. Briefly: NCI 60 cell five-dose assay. It is filed as cell-based. The following applies: Total Growth Inhibition.
The next series deals with HCT116 cells. In words: Growth inhibition / cell viability assay (methylene blue), HCT116. The following applies: for IC50: Homo sapiens, HCT-116. The series is classed as cell-based, human. How it is done: (§2) Cell feasibility was examined using methylene blue staining. Cells were plated at a rate of 5000/well in 96 well plates (n=3) respectively and treated the next day. Three days after treatment, cells were fixed/stained in methylene blue saturated in 50% ethanol for 30 min at room temperature. Excessive water was used to wash off extra dye from the plates.

For series [4] the following is noted: stated in the method as reason for the sampling interval; cited from earlier work.
A short description of series [5]: S9 fraction metabolic stability assay (LC-ESI-MS). It is filed as in vitro ADME. The note with it: human liver S9 fraction; for metabolic reduction to the alcohol: result in words. The source says:
Previous studies established that trifluoromethyl ketones are metabolically unstable and reduced in vivo to trifluoromethyl alcohols (TFMAs). This metabolic reduction caused a major loss in activity. […] It was believed that in TFPAs, the hydrate form of the ketone is stabilized compared to TFMKs, and is therefore less susceptible to reductive metabolism. […] Metabolic stability studies are primarily conducted using liver microsomal assays, as the predominant cytochrome P450 enzymes present in them are responsible for the metabolism of most xenobiotics in the human body. However, P450 transformations are mostly oxidative in nature, precluding their use to assess the stability of ketone drugs against reductive metabolism. […] Thus, using a liver extract containing both cytosol and microsomal enzymes would be more appropriate for this assay. This was accomplished by using the S9 fraction, which is basically the supernatant obtained from centrifugation of hepatocytes at 9000 g and contains both liver cytosol and microsomal enzymes. LC-ESI-MS was used to monitor the reduction of TFPA 60 over time and it was compared with TFMK 91.
A protocol similar to the one previously employed by others using Human Liver S9 fractions instead of liver microsomes was used for the metabolism studies. The assay was initiated by incubating a mixture of the substrate (0.02 mM), buffer (0.1M), and NADPH (1 mM) at 37° C. for ten minutes, followed by addition of the S9 fraction (0.5 mg) to the mixture and gentle mixing. The total volume of the reaction mixture was maintained at 1 mL. […] The reactions in the aliquots were terminated by adding an equal volume of ethyl acetate, mixing thoroughly, and transferring into micro centrifuge tubes. They were vortexed for 2 minutes and then subjected to centrifugation at 10,000×g for 15 minutes to remove the proteins. The top organic layers were extracted and evaporated under reduced pressure. The organic residues from the aliquots were dissolved in methanol first, then diluted 1:1 with water, and analyzed using LC-ESI-MS. A 450 μL aliquot of compound 60 with concentration of 0.02 mM contains 9 nanomoles, which after evaporation, was dissolved in 500 μL of methanol to give 18 μM in concentration of 60. This was diluted 1:1 with water to give a final concentration of 9 μM, which was used for LC-ESI-MS. Similarly, 200 μL of TFMK 91 at a concentration of 0.02 mM contains 4 nanomoles, which after removing ethyl acetate, and dissolving in 250 μL of methanol gives 16 μM concentration of 91. This was diluted 1:1 with water to give 8 μM final concentration for LC-ESI-MS.
The solvent flow rate was 0.2 mL/min, and the sample injection volume was 20 μL. […]

Series [6] concerns U2OS osteosarcoma cell line. Briefly: Growth inhibition assay (methylene blue), U2OS. The note with it: Homo sapiens, Table 4, unit inferred. It is filed as cell-based. How it is done: as §2
The subject of series [7] is MDA-MB-468 breast cancer cell line. Briefly: Growth inhibition assay (methylene blue), MDA-MB-468. The series is classed as cell-based. The note with it: Homo sapiens, Table 4, unit inferred. On the procedure:
as §2

In series [8] the test system is MDA-MB-231 breast cancer cell line. In words: Growth inhibition assay (methylene blue), MDA-MB-231. The series is classed as cell-based. The note with it: Homo sapiens, Table 4, unit inferred. How it is done: as §2
In series [9] the test system is NCI-H522 lung cancer cell line. Briefly: Growth inhibition / cell viability assay (methylene blue), NCI-H522. It is filed as cell-based. The note with it: Homo sapiens. On the procedure:
as §2

The test system of series [10] is HT1080 fibrosarcoma cell line. In words: Growth inhibition assay (methylene blue), HT1080. The note with it: Homo sapiens, HT-1080, Table 4, unit inferred. The series is classed as cell-based. How it is done: as §2
The test system of a further series is RPE cells. In words: Cell survival assay, normal cell line RPE. The series is classed as cell-based. The note with it: Homo sapiens, FIG. 14A, maximum 30 μM. The source says: (§3) This reaffirms the selectivity of TFPAs for cancer cells over normal cells.
(§4) HCT116 human colon cancer cells, NCI-H522 human lung cancer cells, HT1080 fibrosarcoma cells, HeLa cervical cancer cells, U2OS osteosarcoma cells, MDA-MB-231 and MDA-MB-468 breast cancer cells, WI38 diploid human cell line, and human retinal pigment epithelial RPE cells were preserved in Dulbecco's Modified Eagle's medium (Mediatech, Inc.) supplemented with 10% calf serum (Atlanta Biologicals) or 10% fetal bovine serum (Gemini Bio-Products #100-106) and 1000 U/ml of both Penicillin and Streptomycin (Mediatech, Inc.) at 37° C. with 5% CO2. Cell feasibility was examined using methylene blue staining. Cells were plated at a rate of 5000/well in 96 well plates (n=3) respectively and treated the next day. Three days after treatment, cells were fixed/stained in methylene blue saturated in 50% ethanol for 30 min at room temperature. Excessive water was used to wash off extra dye from the plates.

The test system of another series is WI38 cells. Briefly: Cell survival assay, normal cell line WI38. It is filed as cell-based. The following applies: Homo sapiens, WI-38, FIG. 14A, maximum 30 μM.
From the text: as §3, §4

Series [11] has as its system HeLa cervical cancer cell line. In words: Growth inhibition assay (methylene blue), HeLa. The series is classed as cell-based. The note with it: Homo sapiens, Table 4, unit inferred. How it is done:
as §2

Where [12] appears, read: cap group SAR, HCT116 cell line, maximum concentration of 40 μM, read-out: IC50.
The mark [13] stands for this setting: Table 4, growth inhibition, unit inferred, read-out: IC50 H522.

Molecules are shown by their SMILES. Like-named read-outs stand apart in the source and are kept apart here. Where only a bound is given, the exact number is not on record here.

The TGI is the concentration at which net growth stops. A high value points to less potent growth arrest. The term IC50 denotes the concentration at which inhibition is half-maximal. In general, melting point refers to the temperature, or range, at which the solid turns liquid.

Turning to `COc1ccc(-c2cnc(NC(=O)CCCCCCNC(=O)C(O)(O)C(F)(F)F)s2)cc1` [Compound 84, N-(5-(4-methoxyphenyl)thiazol-2-yl)-7-(3,3,3-trifluoro-2,2-dihydroxypropanamido)heptanamide], the “PARP1 cleavage (cleaved PARP1)” value in the series with PARP1 was “Absence of PARP1 cleavage”. For the same molecule, in [1], the “levels of acetylated H3” value was “increased levels” and the levels of pan-acetyl-lysine entry was “increased levels”. The “cytostatic / cytotoxic activity in NCI 60 assays” value in the series with sixty cell lines [2] is “cytotoxic effects”. The “TGI” value with sixty cell lines [3] was found to be 8.51 µM.
For `O=C(CCCCCCC(=O)C(F)(F)F)Nc1ccccc1` [Compound 91, reference compound], in the series on HCT116 cells (setting [12]), the half-inhibitory concentration (IC50) was 10.1 µM. For the same molecule, the half-life entry in series [4] is recorded as “less than 30 minutes”. Also, the “time to complete disappearance (metabolic reduction) of parent M+1 peak” value in [5] (NADPH, 37° C., LC-ESI-MS, aliquots every 15 minutes) was not above 15 min. Moreover, the “metabolic reduction to the alcohol” value in [5] is given as “quantitative biological reduction”.
With `O=C(CCCCCCNC(=O)C(O)(O)C(F)(F)F)Nc1ncc(-c2ccc(Br)cc2)s1` [Compound 85, N-(5-(4-bromophenyl)thiazol-2-yl)-7-(3,3,3-trifluoro-2,2-dihydroxypropanamido)heptanamide], the “PARP1 cleavage (cleaved PARP1)” value in the series on PARP1 is on record as “Dose-dependent elevation of cleaved PARP1 was detectable”. Further, the “cytostatic / cytotoxic activity in NCI 60 assays” value in the series with sixty cell lines [2] is “cytotoxic effects”. The “TGI” value with sixty cell lines [3] was found to be 11.4 µM.
For `COc1ccc2sc(NC(=O)CCCCCCNC(=O)C(O)(O)C(F)(F)F)nc2c1` [Compound 83, N-(5-methoxybenzo[d]thiazol-2-yl)-7-(3,3,3-trifluoro-2,2-dihydroxypropanamido)heptanamide], the IC50 in series [6] came out at 3.29 ± 0.46 µM; in [7], 3.65 ± 0.11 µM; in [8], 0.81 ± 0.1 µM; in the series with HCT116 cells (setting [12]), 2.18 µM; in series [9] (setting [13]) it was 3.23 ± 0.41 µM; in series [10], 2.28 ± 0.47 µM. Moreover, the “PARP1 cleavage (cleaved PARP1)” value in the series on PARP1 is reported as “Dose-dependent elevation of cleaved PARP1 was detectable”. For the same molecule, in the series on sixty cell lines [3], the “TGI” value was 12.3 µM.
Take `O=C(CCCCCCNC(=O)C(O)(O)C(F)(F)F)Nc1nccs1` [Compound 60, N-(thiazol-2-yl)-7-(3,3,3-trifluoro-2,2-dihydroxypropanamido)heptanamide]: the melting point is 137 to 142 °C. For the same molecule, the “time over which parent M+1 peak did not disappear” value in series [5] (NADPH, 37° C., LC-ESI-MS, aliquots at 1h, 2 hrs) was “over 2 hours”. The “metabolic reduction to the alcohol” value in series [5] is recorded as “no reduction to the alcohol”.
As for `COc1ccc(NC(=O)CCCCCCNC(=O)C(O)(O)C(F)(F)F)cc1` [Compound 55, N-(4-methoxyphenyl)-7-(3,3,3-trifluoro-2,2-dihydroxypropanamido)heptanamide], the IC50 in the series with HCT116 cells (cancer vs normal cells study, FIG. 14A, maximum 30 μM, read-out: IC50 HCT116) is 3.13 µM; in the series with HCT116 cells (setting [12]) it was 4.52 µM; in series [9] (cancer vs normal cells study, FIG. 14A, maximum 30 μM, read-out: IC50 NCI-H522) it was 8.05 µM; in the series with RPE cells, more than 30 µM; with WI38 cells, more than 30 µM. Besides, the “cell survival HCT116” value with HCT116 cells (maximum concentration of 30 μM, FIG. 14B) is listed as less than 20%.
Take `O=C(CCCCCCNC(=O)C(O)(O)C(F)(F)F)Nc1nc2ccccc2s1` [Compound 61, N-(benzo[d]thiazol-2-yl)-7-(3,3,3-trifluoro-2,2-dihydroxypropanamido)heptanamide]: the IC50 in [6] was found to be 1.41 ± 0.18 µM; in series [11], 1.52 ± 0.23 µM; in series [7], 1.31 ± 0.18 µM; in series [8], 1.83 ± 0.35 µM; with HCT116 cells (setting [12]) it was 2.37 µM; in series [9] (setting [13]), 2.86 ± 0.36 µM. In series [10], this molecule displayed an IC50 of 2.65 ± 0.21 µM. For the same molecule, the “TGI” value with sixty cell lines [3] was 21.37 µM.

The values above are taken from patent publication US20240360089A1, “Metabolically Stable HDAC Inhibitors with Trifluoromethylpyruvamide as Metal-Binding Group” (The University of Toledo, priority 2023, published 2024).
